Results from US20140336182A1, “Aurora Kinase Modulators and Method of Use” (Amgen Inc., priority 2013, published 2014).

Test system: HeLa cells
Assay: HeLa cell 24 hr ploidy assay (DNA content)
Format: cell-based
Settings: Homo sapiens, HeLa, HeLa cells, 4N ploidy, average, read-out: 24h_4NPloidy EC50_IP (uM Avg)
Procedure, shortened: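 DNA content measured by Hoechst 33342 nuclear staining (0.5 ug/ml, 45 min RT) and high-content imaging of fixed HeLa cells after 24 h compound exposure in 0.25% DMSO. Fractions of 4N and >4N cells fitted to dose curves giving EC50 IP, EC50 transit, Max and Min.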

Structure (SMILES) | EC50
COc1cnc2c(Oc3ccc(Nc4nnc(-c5cccc(N(C)C)c5)c5ccccc45)cc3)ccnc2c1 [compound 258] | 0.004 µM
O=C(c1cc2nccc(Oc3ccc(Nc4nnc(-c5ccc(Cl)cc5)c5ccccc45)cc3)c2s1)N1CCOCC1 [compound 259] | 0.051 µM
COc1cnc2c(Oc3ccc(Nc4nnc(-c5cc(C)c(C)s5)c5ccccc45)cc3)ccnc2c1 [compound 260] | 0.002 µM
COc1cnc2c(Oc3ccc(Nc4nnc(-c5c(C)nn(C)c5C)c5ccccc45)cc3)ccnc2c1 [compound 261] | > 1.2 µM
COc1cnc2c(Oc3ccc(Nc4nnc(-c5ccc([S+](C)[O-])cc5)c5ccccc45)cc3)ccnc2c1 (stereo not shown) [compound 262] | > 1.2 µM
COc1cnc2c(Oc3ccc(Nc4nnc(-c5ccc(S(C)(=O)=O)cc5)c5ccccc45)cc3)ccnc2c1 [compound 263] | 0.138 µM
c1ccc(-c2nnc(Nc3ccc(Oc4ccnc5ccc(N6CCOCC6)cc45)cc3)c3ccccc23)cc1 [compound 264] | 0.387 µM
N#Cc1cnc2c(Oc3ccc(Nc4nnc(-c5ccc(Cl)cc5)c5ccccc45)cc3)ccnc2c1 [compound 265, 8-((4-((4-(4-chlorophenyl)-1-phthalazinyl)amino)phenyl)oxy)-1,5-naphthyridine-3-carbonitrile] | 0.056 µM
Clc1ccc(-c2nnc(Nc3ccc(Oc4ncnc5[nH]cnc45)cc3)c3ccccc23)cc1 [compound 266] | > 1.2 µM
Cn1cncc1-c1cc2nccc(Oc3ccc(Nc4nnc(-c5ccc(Cl)cc5)c5ccccc45)cn3)c2s1 [compound 267] | 0.013 µM
COc1cnc2c(Oc3ccc(Nc4nnc(-c5ccc(C)nc5)c5ccccc45)cc3)ccnc2c1 [compound 268] | 0.066 µM
COc1ccc2nccc(Oc3ccc(Nc4nnc(-c5cc(C)cs5)c5ccccc45)cc3)c2c1 [compound 269] | 0.016 µM
CCN(CC)C(=O)c1cc2nccc(Oc3ccc(Nc4nnc(-c5ccc(Cl)cc5)c5ccccc45)cc3)c2s1 [compound 270] | 0.082 µM
COc1cnc2c(Sc3ccc(Nc4nnc(-c5cc(C)cs5)c5ccccc45)cc3)ccnc2c1 [compound 271, N-(4-(7-methoxy-1,5-naphthyridin-4-ylthio)phenyl)-4-(4-methylthiophen-2-yl)phthalazin-1-amine] | 0.004 µM
c1ccc2c(-c3ccc4c(c3)CCO4)nnc(Nc3ccc(Oc4ccnc5ccsc45)cc3)c2c1 [compound 272] | 0.006 µM
c1ccc(-c2nnc(Nc3ccc(Oc4ncnc5[nH]ccc45)cc3)c3ccccc23)cc1 [compound 273] | > 1.2 µM
CCc1cc(-c2ccccc2)nnc1Nc1ccc(Sc2ccnc3cc(OC)cnc23)cc1 [compound 274, 4-ethyl-N-(4-(7-methoxy-1,5-naphthyridin-4-ylthio)phenyl)-6-phenylpyridazin-3-amine] | 0.029 µM
CCc1cc(-c2ccc(Cl)cc2)nnc1Nc1ccc(Oc2ccnc3cc(OC)cnc23)nc1 [compound 275, 6-(4-chlorophenyl)-4-ethyl-N-(6-(7-methoxy-1,5-naphthyridin-4-yloxy)pyridin-3-yl)pyridazin-3-amine] | 0.161 µM
Fc1cc(F)c2c(Oc3ccc(Nc4nnc(-c5ccccc5)c5ccccc45)cc3)ccnc2c1 [compound 276] | 0.054 µM
Cc1nc(-c2nnc(Nc3ccc(Oc4ccnc5cc(C#N)ccc45)cc3)c3ccccc23)sc1C [compound 277] | 0.035 µM
COc1ccc2nccc(Oc3ccc(Nc4nnc(-c5ccc(Cl)cn5)c5ccccc45)cc3)c2c1 [compound 278] | 0.011 µM
c1ccc2c(-c3ccc4c(c3)OCO4)nnc(Nc3ccc(Oc4ccnc5ccsc45)cc3)c2c1 [compound 279] | 0.011 µM
COc1cnc2c(Oc3ccc(Nc4nnc(-c5cnc6[nH]ccc6c5)c5ccccc45)cc3)ccnc2c1 [compound 280] | 0.08 µM
COc1cnc2c(Oc3ccc(Nc4nnc(-c5ccccc5)c(C)c4C)cc3)ccnc2c1 [compound 281] | 0.378 µM
COc1cc2nncc(Oc3ccc(Nc4nnc(-c5ccc(Cl)cc5)c5ccccc45)cc3)c2cc1OC [compound 282] | ≥ 1.2 µM
